The target of this assay is Nicotinic acetylcholine receptor (Rattus leucopus, UniProt Q62594).
Sequence of Nicotinic acetylcholine receptor (Q62594 whole entry): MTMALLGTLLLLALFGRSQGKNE

Consider `COc1cc2c3cc1Oc1cc(ccc1O)CC1c4c(cc(OC)c(O)c4Oc4ccc(cc4)CC3[N+](C)(C)CC2)CC[N+]1(C)C` (stereo unspecified) [CAS_8063-06-7], for which the affinity, expressed as Ki, was 3.79 µM.

These data come from BindingDB's records for PubMed 9223586 (Georgetown University, 1997).
